According to US20170216252A1, “ANTI-BACTERIAL PYRUVATE KINASE MODULATOR COMPOUNDS, COMPOSITIONS, USES AND METHODS” (SIMON FRASER UNIVERSITY, priority 2014, published 2017):
Like-named read-outs stand apart in the source and are kept apart here.

Assays:
Assay in all cases: Human PK selectivity, LDH-coupled enzyme assay
Format in all cases: biochemical
[1] = target: T1, Human M2 PK (Homo sapiens, UniProt P14618); conditions: read-out: % Inhibition Human M2
T1 construct: used as a template to generate the full-length human M2 PK enzyme; His tag (pET-28a(+) vector) (N); made in house; host or cells: E. coli BL-21 (DE3)
T1 sequence (P14618 whole entry): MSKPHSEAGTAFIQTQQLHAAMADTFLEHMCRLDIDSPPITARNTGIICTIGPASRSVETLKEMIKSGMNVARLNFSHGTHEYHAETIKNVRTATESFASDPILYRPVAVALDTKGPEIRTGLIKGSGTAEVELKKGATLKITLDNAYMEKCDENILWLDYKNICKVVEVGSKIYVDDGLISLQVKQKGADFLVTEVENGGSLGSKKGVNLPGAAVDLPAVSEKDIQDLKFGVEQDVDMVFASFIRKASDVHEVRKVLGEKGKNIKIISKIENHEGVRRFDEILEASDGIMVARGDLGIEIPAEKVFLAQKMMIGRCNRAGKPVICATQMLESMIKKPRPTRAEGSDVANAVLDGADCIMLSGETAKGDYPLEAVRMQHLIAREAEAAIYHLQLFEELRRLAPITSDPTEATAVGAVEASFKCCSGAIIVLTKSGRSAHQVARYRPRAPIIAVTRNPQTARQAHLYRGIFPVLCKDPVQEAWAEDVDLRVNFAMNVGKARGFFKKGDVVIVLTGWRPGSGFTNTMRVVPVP
From the text: (§1) Genomic DNA of MRSA strain Sanger 252 extracted using DNeasy Tissue Kit™ (Qiagen™) was used as a template to generate the His-tagged MRSA PK. Human cDNA from MCF-7 breast cancer cell line (courtesy of Dr. J Wong, BC Cancer Research Center (Vancouver, Canada) was used as a template to generate the full-length human M2 PK enzyme. The following primer sets were used creating appropriate restriction sites (NdeI and XhoI sites underlined): For cloning of MRSA PK: M27F 5′-[…]-3′ and M27R 5′-[…]-3′, for cloning of human M2 PK isoform: hM2F 5′-[…]-3′ and hM2R 5′-[…]-3′. The resulting PCR fragments for each construct were cloned into the NdeI and XhoI unique sites of the bacterial expression vector pET-28a (+) (Novagen™). […] The sequence and the correct reading frame of all constructs were verified by sequencing. Human M1, R and L PK constructs in pET-28-a(+) vectors (courtesy of Dr. L. Cantley, Harvard Medical, School (Boston, USA)) were used to generate relevant recombinant His-tagged human PK isoforms.
(§2) MRSA and human constructs in pET-28a(+) were used to express relevant recombinant PK proteins in E. coli BL-21 (DE3). The proteins were expressed and purified using Ni-NTA agarose (Qiagen™) according to the manufacturer's protocol. Briefly, cells were grown to an absorbance of 0.4-0.5 at 600 nm in 2×YT medium, then induced with 0.1 mM IPTG for 3 h at 20° C. Cells were lysed by sonication on ice (3×10-s bursts with a 30-s recovery between bursts) in lysis buffer (0.2 mg/ml lysozyme, 50 mM Tris pH 7.5, 10 mM MgCl2, 200 mM NaCl, 100 mM KCl, 10% glycerol, 10 mM imidazole, 0.5% NP-40 and 1 mM DTT containing Complete™ protease inhibitor). Cell lysates were cleared by centrifugation (18,000×g in a Beckman™ JA-20 rotor) for 20 min at 4° C. and PK isoforms were purified by batch binding to Ni-NTA resin. The resins were then packed in columns (1×2 cm) and washed with 400 column volumes lysis buffer containing 30 mM imidazole. His-tagged PK isoforms were eluted with the same buffer containing 300 mM imidazole. The proteins were dialyzed overnight at 4° C. against 2000 volumes of ice-cold 30 mM Tris pH 7.5, 25 mM KCl, 5 mM MgCl2, 10% glycerol and 1 mM DTT to remove imidazole. All purification steps were done at 4° C.; enzymes were flash-frozen and stored at −70° C. Enzymatic activity of frozen protein preparations was stable for at least 10 months and up to 5 freeze/thaw cycles. Purity and physical integrity of proteins were assessed using SDS-polyacrylamide gel electrophoresis (SDS-PAGE) followed by coomassie blue staining. Protein concentration was estimated by Bradford assay (Bio-Rad Protein Assay™) using bovine serum albumin as a standard.
(§3) Candidate MRSA PK inhibitors were assayed for their ability to inhibit enzymatic activities of MRSA and human PKs. PK activity was determined using a continuous assay coupled to lactate dehydrogenase (LDH) in which the change in absorbance at 340 nm owing to oxidation of NADH was measured using a Benchmark Plus™ microplate spectrophotometer (Bio-Rad Laboratories, Hercules, Calif.). […] Reactions were initiated by the addition of 15 nM of one of the PK enzymes. PK activity proportional to the rate of change at 340 nm was expressed as specific activity (μmol/min/mg), which is defined as the amount of PK that catalyzes the formation of one micromole of either product per minute. Inhibitors were dissolved in DMSO with the final concentration of the solvent never exceeding 1% of the assay volume. IC50 values were calculated by curve fitting on a four-parameter dose-response model with variable slope using Graphpad Prism 5.0™ (GraphPad™ Software Inc., La Jolla, Calif.). In all studies, less than 10% of total PEP was exhausted during the reaction. Reactions were performed at 30° C. for up to 5 min. All values determined represent at least two measurements, in triplicate (Tables 1-6) or duplicate unless mentioned otherwise. […]

[2] = target: T2, Human M1 PK (Homo sapiens, UniProt P14618); conditions: read-out: % Inhibition Human M1
T2 construct: His tag; made in house; host or cells: E. coli BL-21 (DE3); construct a gift of Dr. L. Cantley
T2 sequence (P14618 1-531 isoform P14618-2): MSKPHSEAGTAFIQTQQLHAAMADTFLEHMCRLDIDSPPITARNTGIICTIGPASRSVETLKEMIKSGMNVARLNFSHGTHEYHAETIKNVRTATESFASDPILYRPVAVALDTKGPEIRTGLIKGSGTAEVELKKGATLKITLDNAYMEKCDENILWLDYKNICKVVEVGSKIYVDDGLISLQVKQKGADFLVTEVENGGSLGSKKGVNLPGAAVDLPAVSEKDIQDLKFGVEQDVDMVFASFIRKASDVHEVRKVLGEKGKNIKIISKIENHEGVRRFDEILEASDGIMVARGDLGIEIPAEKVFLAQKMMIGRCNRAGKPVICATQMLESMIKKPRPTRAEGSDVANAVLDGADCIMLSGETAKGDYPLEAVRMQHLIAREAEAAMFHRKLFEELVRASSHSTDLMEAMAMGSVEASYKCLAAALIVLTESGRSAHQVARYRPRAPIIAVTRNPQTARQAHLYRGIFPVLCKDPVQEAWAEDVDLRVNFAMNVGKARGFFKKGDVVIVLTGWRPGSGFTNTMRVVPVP
From the text: as §1, §2, §3

[3] = target: T3, Human L PK (Homo sapiens, UniProt P30613); conditions: read-out: % Inhibition Human L
T3 construct: His tag; made in house; host or cells: E. coli BL-21 (DE3); construct a gift of Dr. L. Cantley
T3 sequence (P30613 1-543 isoform P30613-2): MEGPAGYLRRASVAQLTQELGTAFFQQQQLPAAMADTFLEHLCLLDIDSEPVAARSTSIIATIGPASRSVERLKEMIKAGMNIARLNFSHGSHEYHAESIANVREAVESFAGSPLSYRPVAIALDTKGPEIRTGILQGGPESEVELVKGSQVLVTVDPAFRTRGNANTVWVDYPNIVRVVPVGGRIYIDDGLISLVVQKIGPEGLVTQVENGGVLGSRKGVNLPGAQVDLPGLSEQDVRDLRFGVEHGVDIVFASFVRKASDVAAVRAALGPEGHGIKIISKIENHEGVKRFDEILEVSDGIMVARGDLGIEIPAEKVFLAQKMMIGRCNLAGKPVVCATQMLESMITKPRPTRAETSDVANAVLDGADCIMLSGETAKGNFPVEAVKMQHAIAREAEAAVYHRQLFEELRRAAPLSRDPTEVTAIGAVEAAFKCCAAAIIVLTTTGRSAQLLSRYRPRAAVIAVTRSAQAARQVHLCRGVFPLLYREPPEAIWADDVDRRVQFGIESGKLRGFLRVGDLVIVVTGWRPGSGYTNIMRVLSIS
From the text: as §1, §2, §3

[4] = target: T4, Human R PK (Homo sapiens, UniProt P30613); conditions: read-out: % Inhibition Human R
T4 construct: His tag; made in house; host or cells: E. coli BL-21 (DE3); construct a gift of Dr. L. Cantley
T4 sequence (P30613 whole entry): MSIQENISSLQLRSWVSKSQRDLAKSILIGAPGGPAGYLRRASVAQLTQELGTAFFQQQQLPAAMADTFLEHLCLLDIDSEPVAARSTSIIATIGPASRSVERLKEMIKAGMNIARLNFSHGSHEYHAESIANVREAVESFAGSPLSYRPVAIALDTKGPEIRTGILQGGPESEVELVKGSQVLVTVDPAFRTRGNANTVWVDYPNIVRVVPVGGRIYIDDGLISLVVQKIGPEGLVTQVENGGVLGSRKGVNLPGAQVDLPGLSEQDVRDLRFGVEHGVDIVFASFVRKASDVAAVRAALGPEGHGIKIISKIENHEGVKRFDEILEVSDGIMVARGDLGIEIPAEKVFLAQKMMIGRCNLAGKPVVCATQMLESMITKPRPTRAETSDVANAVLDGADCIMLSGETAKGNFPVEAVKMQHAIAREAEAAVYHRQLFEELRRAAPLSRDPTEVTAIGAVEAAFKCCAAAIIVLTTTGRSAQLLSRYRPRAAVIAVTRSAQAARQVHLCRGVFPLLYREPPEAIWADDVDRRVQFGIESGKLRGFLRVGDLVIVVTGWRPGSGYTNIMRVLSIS
From the text: as §1, §2, §3

Row | SMILES | inhibition at 10 µM ([1]; at 10 μM) [%] | inhibition at 10 µM ([2]; at 10 μM) [%] | inhibition at 10 µM ([3]; at 10 μM) [%] | inhibition at 10 µM ([4]; at 10 μM) [%] | inhibition at 10 µM [1] [%] | inhibition at 10 µM [2] [%] | inhibition at 10 µM [3] [%] | inhibition at 10 µM [4] [%]
1 | Brc1ccc2[nH]c(-c3cc4cc(Br)ccc4[nH]3)cc2c1 [Compound 10i, 5,5′-Bibromo-1H,1′H-2,2′-biindole] | 0.5 | 12.3 | 9.8 | 24.4 |  |  |  | 
2 | Brc1ccc2[nH]c(C#Cc3cc4ccc(Br)cc4[nH]3)cc2c1 [Compound 25c, 6-Bromo-2-((5-bromo-1H-indol-2-yl)ethynyl)-1H-indole] | 8.7 | 19.5 | 14 | 27.8 |  |  |  | 
3 | OCCn1c(-c2cc3ccc(Br)cc3[nH]2)cc2cc(Br)ccc21 [Compound 17, 2-(5,6′-Dibromo-1H, 1′H-[2,2′-biindol]-1-yl)ethanol] | 12.1 | 14.6 | 6.8 | 25.2 |  |  |  | 
4 | Brc1ccc2cc(-c3cc4cc(Br)c(Br)cc4[nH]3)[nH]c2c1 [Compound 10k, 5,6,6′-Tribromo-1H,1′H-2,2′-biindole] | 20.8 | 16.1 | 26.8 | 41 |  |  |  | 
5 | Brc1ccc2cc(-c3cc4ccccc4o3)[nH]c2c1 [Compound 22b, 2-(Benzofuran-2-yl)-6-bromo-1H-indole] | 0.4 | 5.3 | -6 | -5.5 |  |  |  | 
6 | Brc1cc2cc(-c3cc4cc(Br)c(Br)cc4[nH]3)[nH]c2cc1Br [Compound 10l, 5,5′,6,6′-Tetrabromo-1H,1′H-2,2′-biindole] |  |  |  |  | 2.3 | 11.1 | 8.2 | 20.7
7 | CN1CCN(CCn2c(-c3cc4ccc(Br)cc4[nH]3)cc3cc(Br)ccc32)CC1 [Compound 20a, 5,6′-Dibromo-1-(2-(4-methylpiperazin-1-yl)ethyl)-1H,1′H-2,2′-biindole] | 1.7 | 3.2 | 16.8 | 26.1 |  |  |  | 
8 | Brc1ccc2[nH]c(-c3cc4ccc(Br)cc4[nH]3)cc2c1 [Compound 10c, 5,6-Bibromo-1H,1′H-2,2′-biiindole] | 8.7 | 6.9 | 6.1 | 13.6 |  |  |  | 
9 | COc1cc(-c2cc3ccccc3[nH]2)ccc1-c1cc2ccc(Br)cc2[nH]1 [Compound 33e, 2-(4-(1H-indol-2-yl)-2-methoxyphenyl)-6-bromo-1H-indole] | 14.6 | 7.3 | 4.3 | 13.5 |  |  |  | 
10 | Cn1c(-c2cc3ccc(Br)cc3[nH]2)cc2cc(Br)ccc21 [Compound 12a, 5,6′-Dibromo-1-methyl-1H,1′H-2,2′-biindole] | 9.1 | 13.9 | 2.8 | 2.7 |  |  |  | 
11 | Brc1ccc2cc(/C=C/c3cc4ccccc4[nH]3)[nH]c2c1 [Compound 27a, (E)-2-(2-(1H-indol-2-yl)vinyl)-6-bromo-1H-indole] | -0.9 | 16.1 | 12.9 | 23.8 |  |  |  | 
12 | Brc1ccc2cc(CCc3cc4ccc(Br)cc4[nH]3)[nH]c2c1 [Compound 28a, 1,2-bis(6-bromo-1H-indol-2-yl)ethane] | 1.3 | 9.9 | 9.7 | 24.1 |  |  |  | 
13 | Brc1ccc2c(c1)cc(-c1cc3ccc(Br)cc3[nH]1)n2CCN1CCOCC1 [Compound 20b, 4-(2-(5,6′-dibromo-1H,1′H-[2,2′-biindol]-1-yl)ethyl)morpholine] | 3.5 | 13.1 | 32.1 | 50.7 |  |  |  | 
14 | Brc1ccc2cc(-c3cc4ccc(Br)cc4[nH]3)[nH]c2c1 [Compound 10b, 6,6′-Dibromo-1H,1′H-2,2′-biindole] | 0.1 | 10.3 | 7.9 | 18.3 |  |  |  | 
15 | Brc1ccc2cc(-c3nc4ccccc4s3)[nH]c2c1 [Compound 22a, 2-(6-Bromo-1H-indol-2-yl)benzo[d]thiazole] | 3 | 12.4 | 7.8 | 21.6 |  |  |  | 
